Legend:
[1] = target: T1, malonyl-CoA decarboxylase prepared from rat heart (Rattus norvegicus, UniProt Q920F5); experiment: In Vitro MCD inhibitory assay (spectrophotometric, 96 well); format: biochemical; settings: read-out: IC50 of the MCD inhibitors
T1 construct: malonyl-CoA decarboxylase prepared from rat heart; from tissue; host or cells: rat heart
T1 sequence (Q920F5 39-492): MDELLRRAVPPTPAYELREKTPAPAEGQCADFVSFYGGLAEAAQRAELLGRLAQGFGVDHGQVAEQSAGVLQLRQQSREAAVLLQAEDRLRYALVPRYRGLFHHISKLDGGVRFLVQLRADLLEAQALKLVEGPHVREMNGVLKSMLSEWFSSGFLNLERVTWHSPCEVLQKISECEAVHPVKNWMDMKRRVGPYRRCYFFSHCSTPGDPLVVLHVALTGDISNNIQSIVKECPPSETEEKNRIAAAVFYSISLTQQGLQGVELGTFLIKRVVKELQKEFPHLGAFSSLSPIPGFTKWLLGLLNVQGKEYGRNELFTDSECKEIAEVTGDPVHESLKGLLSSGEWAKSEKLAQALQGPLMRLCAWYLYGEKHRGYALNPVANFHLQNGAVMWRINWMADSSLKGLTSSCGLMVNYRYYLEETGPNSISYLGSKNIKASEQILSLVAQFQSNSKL
Procedure: The following reagents are added into a 96 well titer plate: Tris-HCl buffer, 20 μL; DTE, 10 μL; 1-malate, 20 μL; NAD, 10 μL; NADH, 25 μL; water, 80 μL; malic dehydrogenase, 5 μL. The contents are mixed and incubated for 2 min followed by the addition of 5 μL of citrate synthase.

[2] = system: human breast cancer cells; settings: cited from earlier work

Row | SMILES | IC50 [1] [nM] | malonyl-CoA level ([2]; breast carcinoma cells) | antitumor activity ([2]; human breast cancer cells and xenografts)
1 | CCCCN(C(=O)NCC)c1ncc(C(O)(C(F)(F)F)C(F)(F)F)s1 [Example 1-3-1, N-butyl-N′-ethyl-N-{5-[2,2,2-trifluoro-1-hydroxy-1-(trifluoromethyl)ethyl]-1,3-thiazol-2-yl}urea] | 213 |  | 
2 | O=CN(Cc1ccncc1)c1ncc(C(O)(C(F)(F)F)C(F)(F)F)s1 [Example 1-4, pyridin-4-yl methyl {5-[2,2,2-trifluoro-1-hydroxy-1-(trifluoromethyl)ethyl]-1,3-thiazol-2-yl}formamide] | 463 |  | 
3 | O=S(=O)(Nc1ncc(C(O)(C(F)(F)F)C(F)(F)F)s1)c1ccc(Cl)cc1 [Example 3, 4-chloro-N-{5-[2,2,2,-trifluoro-1-hydroxy-1-(trifluoromethyl)ethyl]-1,3-thiazol-2-yl}benzenesulfonamide] | 124 |  | 
4 | CN(CC#CC(O)(C(F)(F)F)C(F)(F)F)C(=O)CCc1ccccc1 [Example 7-1, N-methyl-3-phenyl-N-[5,5,5-trifluoro-4-hydroxy-4-(trifluoromethyl)pent-2-ynyl]propanamide] | 739 |  | 
5 | CC(C)N(C(=O)C1=NOC(C(O)(C(F)(F)F)C(F)(F)F)C1)C(C)C (stereo not drawn) [Example 8-3-3] | 127 |  | 
6 | OC(C1CC(N2CCCC2)=NO1)(C(F)(F)F)C(F)(F)F (stereo not drawn) [Example 9-2, 1,1,1,3,3,3-hexafluoro-2-(3-pyrrolidin-1-4,5-dihydroisoxazol-5-yl)propan-2-ol] | 3710 |  | 
7 | Cc1ccc(C2=NOC(C(O)(C(F)(F)F)C(F)(F)F)C2)cc1 (stereo not drawn) [Example 11-1, 1,1,1,3,3,3-hexafluoro-2-[3-(4-methylphenyl)-4,5-dihydroisoxazol-5-yl]propan-2-ol] | 388 |  | 
8 | CCCCCCCCCCCCCCOc1ccc(C(=O)O)o1 [TOFA, 5-(tetradecyloxy)-2-furoic acid] |  | 60 % of the control | does not show any antitumor activity
